For orientation: IC50 means the concentration at which inhibition is half-maximal.

Consider one compound from patent publication US20200038513A1, “MODULATORS OF FAK PROTEOLYSIS AND ASSOCIATED METHODS OF USE” (ARVINAS OPERATIONS, INC., priority 2018, published 2020).

Experiment [1] deals with set of 468 kinases. The experiment is described as follows: KinomeScan kinase engagement assay (DiscoverX). It is filed as binding. The following applies: 1000 nM, 403 non-mutant kinases. Here is the method: The Kinase engagement assay was performed by DiscoverX assessing binding abilities towards a set of 468 kinases.
Examination of Target Protein Selectivity. To assess the target selectivity of exemplary compound 102 over a large panel of different kinases, a DiscoverX KINOMEScan was performed. KINOMEScan measures compound binding to individual kinases via the compounds ability to compete/displace the kinases from an immobilized support that non-selectively binds kinase active sites. […] It appears that the slight loss in inhibitory potency due to linker and VHL ligand attachment results in greater selectivity.

For experiment [2], the system named is MDA-MB-231 cells. Put plainly: Wound healing assay. It is filed as cell-based, human. Particulars: 24 hours. Here is the method:
MDA-MB-231 cells were maintained in complete growth medium (RPMI-1640) at 37° C. supplied with 5% CO2. Cells (1×10^6) were split in to a 12-well plate. After 24 hours an even wound was created across each well using a sterile 10 μL pipette tip and the cells were washed with warm phosphate-buffered solution (PBS) twice to remove any floating or dead cells. This time point was considered as 0 hours and cells were incubated in fresh medium containing exemplary compound or control as indicated, for 24 hours. Images of wounded area were captured at 0 hour and after 24 hours using a camera attached to a light microscope. Images were analyzed by ImageJ software and wounded area was quantified. The area of the remaining wound at 24 hours was subtracted from the area of the wound at 0 hour. Percent wound healing (migration) was calculated and data presented as a bar graph using Prism 7.0 (GraphPad). Differences between groups were analyzed by Welch's t-test and considered significant when p<0.05.
Since Fak is a key regulator of cell motility, exemplary compound 102 was evaluated for its effect on cell migration and invasion. […] Effects on cell migration were analyzed in a wound healing assay using the aggressive and invasive human TNBC cell line MDA-MB-231. […] Wound closure was quantified after 24 hours (FIGS. 13A and 13B).

Experiment [3] relates to MDA-MB-231 cells. The experiment is described as follows: Cell proliferation assay (MTS). The class given is cell-based, human. The following applies: 96 hours. The procedure: (§1) Cells were seeded in 96-well plates and treated with exemplary compound or control as indicated. At desired time points culture medium was supplemented with […] MTS (Promega) and […] phenazine methosulfate (Sigma) and incubated at 37° C. Mitochondrial reduction of MTS to the formazan derivative was monitored by measuring the medium's absorbance at 490 nm using a Wallac Victor 2 plate reader (Perkin-Elmer Life Sciences). Data analysis and statistics was performed using Prism 7.0 (GraphPad).

Experiment [4] relates to PC3 cells. The experiment is described as follows: Cell proliferation assay (MTS). Particulars: 96 h. The class given is cell-based, human. Here is the method:
as §1

The test system of experiment [5] is androgen receptor (AR). The experiment is described as follows: Western blot validation of RPPA results in MDA-MB-231 cells. The class given is cell-based, human. The following applies: 10% FBS, varying concentrations. Here is the method:
(§2) If not indicated otherwise, cells were seeded and grown to 80% confluency and were treated with compound or control for 24 hours. Subsequently, the growth media was removed and the cells lysed by the addition of lysis buffer (25 mM Tris, pH 7.4; 1% NP-40, 0.25% deoxycholate, 1 mM sodium vanadate, 10 mM sodium fluoride, 10 mM sodium pyrophosphate, 20 mM β-glycerophosphate and 1× complete EDTA-free protease inhibitor cocktail (Roche)). After 20 minutes the mixture was spun down at 16,000×g for 10 minutes at 4° C. to pellet insoluble materials. Protein concentration of supernatants were determined via BCA assay (Thermo Fisher) before addition of NuPAGE sample buffer containing 5% β-Me and boiling at 95° C. for 10 minutes. Equal amounts of protein were subjected to SDS-PAGE and subsequent electrophoretic transfer onto nitrocellulose membrane. Rabbit antibodies were purchased from Cell Signaling: Fak (3285), p-Fak (3283), p-Paxillin (2541), p-Akt (S473)(4060), GAPDH (2118), Androgen Receptor (5153), p-Src(Y527)(2105), p-S6RP (2215). Mouse antibodies were purchased from Cell Signaling: tubulin (3873), S6RP (2317). Secondary antibody ∝-rabbit (31460) or ∝-mouse (31444) was coupled to horseradish peroxidase and purchased from Thermo Fisher. Immunoblots were developed using enhanced chemiluminescence and visualized using a Bio-Rad Chemi-Doc MP Imaging System and quantitated with Image Lab v.5.2.1 software (Bio-Rad Laboratories). Data analysis and statistics was performed using Prism 7.0 (GraphPad).
(§3) It has been previously shown that extranuclear AR is involved in cell migration and forms a multiprotein complex comprised of filamin A/β-1 integrin/Fak/AR in NIH3T3 fibroblasts that facilitates Fak activation. […] Phosphorylation of S6RP occurs via the Src-Fak-PI3K pathway and p-S6RP is required for the initiation of translation in response to cell growth and proliferation.
On the technique in general: A western blot detects proteins with antibodies after separation by electrophoresis.

The test system of experiment [6] is p-Akt(S473). The description is as above. The class given is cell-based, human. Particulars: 10% FBS, varying concentrations. The procedure: as §2, §3
The test system of experiment [7] is p-S6RP(S240/S244). Described as above. The class given is cell-based, human. Particulars: 10% FBS, varying concentrations. Here is the method: as §2, §3
The subject of experiment [8] is p-Src(Y527). The experiment is described as above. The class given is cell-based, human. Particulars: 10% FBS, varying concentrations. The procedure: as §2, §3
Experiment [9] concerns S6RP. Put plainly: Western blot of S6RP total levels in MDA-MB-231 cells. The class given is cell-based, human. The following applies: 10% FBS, varying concentrations. Here is the method: as §2, with “Secondary antibody ∝-rabbit (31460) or ∝-mouse (31444) was coupled to horseradish peroxidase and purchased from Thermo Fisher.” left out, “Data analysis and statistics was performed using Prism 7.0 (GraphPad).” left out

The target in experiment [10] is Fak (Homo sapiens, UniProt Q05397). Put plainly: Kinase activity assay (Reaction Biology Corp.). The class given is biochemical. Further details: purchased Reaction Biology Corp. (contract assay service). The following applies: 10 μM ATP, n = 2. The procedure: Reactions were carried out at 10 μM ATP. IC50 values were calculated using Prism 7.0 (GraphPad).
Sequence of Fak (Q05397 whole entry): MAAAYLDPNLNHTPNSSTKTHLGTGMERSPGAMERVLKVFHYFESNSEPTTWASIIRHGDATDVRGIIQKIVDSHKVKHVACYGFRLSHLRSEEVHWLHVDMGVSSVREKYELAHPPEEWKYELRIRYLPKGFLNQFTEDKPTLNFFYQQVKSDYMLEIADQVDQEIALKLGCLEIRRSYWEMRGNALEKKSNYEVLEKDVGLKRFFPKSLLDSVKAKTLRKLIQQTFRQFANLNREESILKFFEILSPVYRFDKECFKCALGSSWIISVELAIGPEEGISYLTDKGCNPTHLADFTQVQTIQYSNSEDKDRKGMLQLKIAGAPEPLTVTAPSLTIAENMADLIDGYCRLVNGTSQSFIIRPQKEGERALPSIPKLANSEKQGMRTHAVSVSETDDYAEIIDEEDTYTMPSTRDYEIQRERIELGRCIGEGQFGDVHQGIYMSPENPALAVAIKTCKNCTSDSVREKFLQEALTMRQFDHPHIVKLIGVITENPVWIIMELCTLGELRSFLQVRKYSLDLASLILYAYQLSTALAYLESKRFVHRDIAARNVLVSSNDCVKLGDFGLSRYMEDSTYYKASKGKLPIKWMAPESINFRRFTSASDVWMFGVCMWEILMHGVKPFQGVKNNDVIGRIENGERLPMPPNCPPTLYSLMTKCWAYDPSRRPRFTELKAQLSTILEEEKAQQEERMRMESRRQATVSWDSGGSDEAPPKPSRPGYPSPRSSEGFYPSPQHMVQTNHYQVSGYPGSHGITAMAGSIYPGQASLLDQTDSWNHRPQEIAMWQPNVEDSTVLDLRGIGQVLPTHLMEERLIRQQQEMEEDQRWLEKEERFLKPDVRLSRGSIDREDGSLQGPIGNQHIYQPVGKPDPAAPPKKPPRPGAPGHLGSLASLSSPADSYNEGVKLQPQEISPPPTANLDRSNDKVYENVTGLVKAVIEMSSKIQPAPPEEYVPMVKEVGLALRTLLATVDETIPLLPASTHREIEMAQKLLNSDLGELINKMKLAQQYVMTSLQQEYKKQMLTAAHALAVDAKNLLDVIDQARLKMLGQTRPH

As for `Cc1ncsc1-c1ccc(CNC(=O)[C@@H]2C[C@@H](O)CN2C(=O)[C@@H](NC(=O)CCOCCOc2ccc(Nc3ncc(C(F)(F)F)c(NCc4cccc(N(C)S(C)(=O)=O)c4)n3)cc2)C(C)(C)C)cc1` [Compound 102, (2S,4R)-1-((S)-3,3-dimethyl-2-(3-(2-(4-((4-((3-(N-methylmethylsulfonamido)benzyl)amino)-5-(trifluoromethyl)pyrimidin-2-yl)amino)phenoxy)ethoxy)propanamido)butanoyl)-4-hydroxy-N-(4-(4-methylthiazol-5-yl)benzyl)pyrrolidine-2-carboxamide], in experiment [1], the “Number of Hits, S(10)” value was 7; the “Selectivity Score, S(1)” value came to 0.002; the “Selectivity Score, S(10)” value worked out at 0.017; the “Selectivity Score, S(35)” value is recorded as 0.05. Also, the “Number of Hits, S(35)” value in experiment [1] (less than 35% of control remaining) was 20. Further, in experiment [2] (50 nM), the “reduction of wound healing” value is 53%. In addition, the “impairment of wound closure” value in [2] (250 nM) is 70%. Further, the “cell viability or proliferation (in words)” value in experiment [3] was “do not affect cell viability or proliferation within four days”. In addition, the “cell viability or proliferation (in words)” value in experiment [4] is “do not affect cell viability or proliferation within four days”. The “AR levels (in words)” value in experiment [5] is given as “reduction of AR levels”. For the same compound, in experiment [6], the “p-Akt(S473) levels (in words)” value is reported as “reduced levels of p-Akt(S473)”. In addition, in experiment [7], the “phosphorylation of S6RP (in words)” value is reported as “reduced phosphorylation”. In addition, the “p-Src(Y527) levels (in words)” value in [8] is reported as “reduced levels”. Further, the “total S6RP levels (in words)” value in experiment [9] is given as “unchanged”. Further, the IC50 in experiment [10] turned out to be 6.5 nM.
